Measurements: PMC7689089, “Regorafenib combined with PD1 blockade increases CD8 T-cell infiltration by inducing CXCL10 expression in hepatocellular carcinoma” (Journal for Immunotherapy of Cancer, 2020)
Like-named read-outs stand apart in the source and are kept apart here. Each block holds one compound with its values, some of them ahead of it.

Tests used:
[1] = test system: RIL-175 cells; test: CXCL10 secretion by RIL-175 cells in vitro (ELISA); type: cell-based, mouse; conditions: 2μM for 36hr; ELISA; n=6
From the text: To determine if CXCL10 was produced by murine HCC cells in response to regorafenib treatment, we next cultured RIL-175 cells with various concentration of regorafenib in vitro and measured the CXCL10 levels by ELISA. […]
treated by regorafenib as standard of care (HCC) (using the DFCI Protocol No.: 13-416 “Collection of Specimens and Clinical Data for Patients with Known or Suspected Solid Tumors”, PI, Dr. Juric, MGH) or in a phase I clinical trial of regorafenib monotherapy in acute myeloid leukemia (AML) patients (ClinicalTrials.gov Identifier: NCT03042689, PI, Hobbs, MGH). Both protocols have been IRB approved, and written consent was obtained from all patients.
Protein analyses. Western blotting was performed using antibodies against Stat1 (D1K9Y), phosphorylated (p)-Stat1 (Tyr701) (D4A7), Stat3 (79D7), p-Stat3 (Ser727) (Cell Signaling Technology, Danvers, MA), and IFN-γ (EPR1108) (Abcam, Cambridge, MA). Multiplexed protein array analysis was performed for protein extracts from whole tumors, using V-PLEX Proinflammatory Panel 1 Mouse Kit, V-PLEX Cytokine Panel 1 Mouse Kit and V-PLEX […] (Meso-Scale Discovery, Rockville, MD). For cell supernatant collection, 1x10^6 of RIL-175 cells were cultured in DMEM medium with 2% FBS and regorafenib was given in a various dose.
Supernatant was collected after 36hr of incubation and multiplexed protein array analysis was done using the same kit above.
Flow cytometry analysis. Tumor tissues were extracted from the mice, weighted and minced with a scalpel. Hank’s buffered salt solution (HBSS) with 1.5mg/ml of collagenase and hyaluronidase was added to the minced tissues and incubated for 30 min at 37°C. After incubation, digested tissues were passed through the 70μm cell strainer and washed with PBS with 2% BSA. After preparation, cells were suspended in 2ml of PBS with 2% BSA, then counted using a cell counting plate (Kova slide) (if the final concentration of cell exceeded 10^7 cells/ml, a dilution factor was applied). One hundred microliters of this suspension were used per subsequent flow cytometry staining. […]

[2] = mouse, in vivo
Experimental: From the orthotopic HCC and liver damage mouse models described above, blood samples were collected at 1, 4, 7 and 24 hours after once-daily oral administration of 5, 10 and 20 mg/kg regorafenib, respectively, for 5 days. Anti-PD1 antibody was given on days 1 and 4 with dose of 10 mg/kg by intraperitoneal injection. Blood samples were drawn from four to five animals per sampling time point. Regorafenib and its active metabolites M-2, M-4 and M-5 were analyzed in plasma samples using a validated bioanalytical liquid chromatography-tandem mass spectrometry.[25 33] Pharmacokinetic (PK) parameters were derived from the area under the plasma concentration versus time curve (AUC) using a non-compartmental analysis.
In addition, we evaluated PK parameters in HCC-bearing mice after regorafenib administration alone at doses of 5, 10 and 20 mg/kg or in combination with anti-PD1 therapy at the 10 mg/kg regorafenib dose for 5 days to achieve a steady state.

[3] = test system: advanced HCC; parameters: method as in ref 4 5; conditions: patients with advanced HCC; ref 4 5; cited from earlier work
[4] = test system: advanced HCC; parameters: method as in ref 14 15; conditions: previously treated patients with advanced HCC; phase I/II trial data; ref 14 15; cited from earlier work

Compound: NS(=O)(=O)c1cccc2c1C(=O)c1cccc(O)c1C2=O [LLL12]
CXCL10 expression in RIL-175 cells [1]: significantly increased

Plasma Tmax [2]: 7 h
Tumor Tmax [2]: 7 h
Plasma AUC ([2]; po, 5 mg/kg): 0.363 µg·h/mL
Plasma AUCnorm ([2]; po, 5 mg/kg): 0.0749 kg·h/L
Plasma Cmax ([2]; po, 5 mg/kg): 0.0217 µg/mL
Plasma Tmax ([2]; po, 5 mg/kg): 7 h
Tumor AUC ([2]; po, 5 mg/kg): 1.04 µg·h/mL
Tumor AUCnorm ([2]; po, 5 mg/kg): 0.209 kg·h/L
Tumor Cmax ([2]; po, 5 mg/kg): 52.8 µg/kg
Tumor Tmax ([2]; po, 5 mg/kg): 4 h
Plasma AUC ([2]; po, 10 mg/kg): 0.663 µg·h/mL
Plasma AUCnorm ([2]; po, 10 mg/kg): 0.0684 kg·h/L
Plasma Cmax ([2]; po, 10 mg/kg): 0.0405 µg/mL
Plasma Tmax ([2]; po, 10 mg/kg): 7 h
Tumor AUC ([2]; po, 10 mg/kg): 2.1 µg·h/mL
Tumor AUCnorm ([2]; po, 10 mg/kg): 0.210 kg·h/L
Tumor Cmax ([2]; po, 10 mg/kg): 117 µg/kg
Tumor Tmax ([2]; po, 10 mg/kg): 7 h
Plasma AUC ([2]; po, 20 mg/kg): 1.48 µg·h/mL
Plasma AUCnorm ([2]; po, 20 mg/kg): 0.0763 kg·h/L
Plasma Cmax ([2]; po, 20 mg/kg): 0.124 µg/mL
Plasma Tmax ([2]; po, 20 mg/kg): 7 h
Tumor AUC ([2]; po, 20 mg/kg): 3.78 µg·h/mL
Tumor AUCnorm ([2]; po, 20 mg/kg): 0.189 kg·h/L
Tumor Cmax ([2]; po, 20 mg/kg): 214 µg/kg
Tumor Tmax ([2]; po, 20 mg/kg): 7 h
Compound: NC(=O)c1cc(Oc2ccc(NC(=O)Nc3ccc(Cl)c(C(F)(F)F)c3)c(F)c2)ccn1 [M-4]

Compound: CNC(=O)c1cc(Oc2ccc(NC(=O)Nc3ccc(Cl)c(C(F)(F)F)c3)cc2)ccn1 [Sorafenib]
OS benefit over placebo [3]: approximately 3 months

Compound: nivolumab: anti-PD1 antibody
Responses [4]: 14%–31%

Compound: pembrolizumab: anti-PD1 antibody
Responses [4]: 14%–31%
